From the NIST ThermoML archive (doi:10.1021/je700152c)
Values joined by “and” are separate entries in the source; they are usually repeats but may differ in a detail not shown here. Equal values may be shown once.

Assay: molar heat capacity at saturation pressure

CCCCn1cc[n+](C)c1.Cc1ccc(S(=O)(=O)[O-])cc1 [1-butyl-3-methylimidazolium tosylate]
Settings | molar heat capacity
125.01 K, Crystal 2 | 211.89 J/K/mol
125.12 K, Metastable crystal | 219.77 J/K/mol
125.41 K, Crystal 2 | 212.45 J/K/mol
126.82 K, Crystal 2 | 214.18 J/K/mol
126.86 K, Crystal 2 | 214.18 J/K/mol
126.95 K, Metastable crystal | 222.38 J/K/mol
127.27 K, Crystal 2 | 214.65 J/K/mol
128.68 K, Crystal 2 | 216.45 J/K/mol
128.72 K, Crystal 2 | 216.36 J/K/mol
128.79 K, Metastable crystal | 224.93 J/K/mol
129.12 K, Crystal 2 | 216.95 J/K/mol
130.54 K, Crystal 2 | 218.78 J/K/mol
130.57 K, Crystal 2 | 218.72 J/K/mol
130.63 K, Metastable crystal | 227.59 J/K/mol
130.97 K, Crystal 2 | 219.24 J/K/mol
132.4 K, Crystal 2 | 221.01 J/K/mol
132.43 K, Crystal 2 | 221.01 J/K/mol
132.46 K, Metastable crystal | 230.26 J/K/mol
132.83 K, Crystal 2 | 221.54 J/K/mol
134.26 K, Crystal 2 | 223.47 J/K/mol
134.29 K, Crystal 2 | 223.34 J/K/mol
134.3 K, Metastable crystal | 232.84 J/K/mol
134.69 K, Crystal 2 | 223.96 J/K/mol
136.12 K, Crystal 2 | 225.86 J/K/mol
136.14 K, Metastable crystal | 235.54 J/K/mol
136.15 K, Crystal 2 | 225.83 J/K/mol
136.55 K, Crystal 2 | 226.35 J/K/mol
137.98 K, Crystal 2 | 228.34 J/K/mol
137.98 K, Metastable crystal | 238.37 J/K/mol
138.01 K, Crystal 2 | 228.37 J/K/mol
138.41 K, Crystal 2 | 228.74 J/K/mol
139.81 K, Metastable crystal | 241.04 J/K/mol
139.84 K, Crystal 2 | 230.89 J/K/mol
139.87 K, Crystal 2 | 230.85 J/K/mol
140.27 K, Crystal 2 | 231.16 J/K/mol
141.65 K, Metastable crystal | 243.74 J/K/mol
141.7 K, Crystal 2 | 233.49 J/K/mol
141.73 K, Crystal 2 | 233.37 J/K/mol
142.13 K, Crystal 2 | 233.8 J/K/mol
143.48 K, Metastable crystal | 246.44 J/K/mol
143.56 K, Crystal 2 | 236.57 J/K/mol
143.59 K, Crystal 2 | 236.07 J/K/mol
143.98 K, Crystal 2 | 236.57 J/K/mol
145.31 K, Metastable crystal | 249.26 J/K/mol
145.41 K, Crystal 2 | 240.45 J/K/mol
145.44 K, Crystal 2 | 238.96 J/K/mol
145.83 K, Crystal 2 | 239.61 J/K/mol
147.15 K, Metastable crystal | 251.93 J/K/mol
147.26 K, Crystal 2 | 246.19 J/K/mol
147.3 K, Crystal 2 | 242.18 J/K/mol
147.68 K, Crystal 2 | 243.36 J/K/mol
148.98 K, Metastable crystal | 254.72 J/K/mol
149.09 K, Crystal 2 | 256.71 J/K/mol
149.15 K, Crystal 2 | 246.16 J/K/mol
149.52 K, Crystal 2 | 249.76 J/K/mol
150.8 K, Metastable crystal | 257.49 J/K/mol
150.89 K, Crystal 2 | 272.54 J/K/mol
150.98 K, Crystal 2 | 254.94 J/K/mol
151.34 K, Crystal 2 | 267.23 J/K/mol
152.63 K, Metastable crystal | 260.28 J/K/mol
152.68 K, Crystal 2 | 270.46 J/K/mol
152.77 K, Crystal 2 | 286.32 J/K/mol
153.11 K, Crystal 1 | 287.72 J/K/mol
154.46 K, Metastable crystal | 263.04 J/K/mol
154.51 K, Crystal 1 | 248.64 J/K/mol
154.55 K, Crystal 1 | 265.74 J/K/mol
154.91 K, Crystal 1 | 252.18 J/K/mol
156.28 K, Metastable crystal | 265.84 J/K/mol
156.37 K, Crystal 1 | 244.36 J/K/mol
156.4 K, Crystal 1 | 246.87 J/K/mol
156.77 K, Crystal 1 | 244.82 J/K/mol
158.1 K, Metastable crystal | 268.6 J/K/mol
158.25 K, Crystal 1 | 245.1 J/K/mol
158.27 K, Crystal 1 | 245.66 J/K/mol
158.64 K, Crystal 1 | 245.51 J/K/mol
159.92 K, Metastable crystal | 271.3 J/K/mol
160.13 K, Crystal 1 | 246.75 J/K/mol
160.14 K, Crystal 1 | 247 J/K/mol
160.51 K, Crystal 1 | 247.09 J/K/mol
161.74 K, Metastable crystal | 273.94 J/K/mol
162 K, Crystal 1 | 248.58 J/K/mol
162.02 K, Crystal 1 | 248.64 J/K/mol
162.38 K, Crystal 1 | 248.95 J/K/mol
163.55 K, Metastable crystal | 276.55 J/K/mol
163.88 K, Crystal 1 | 250.47 J/K/mol
163.89 K, Crystal 1 | 250.47 J/K/mol
164.25 K, Crystal 1 | 250.81 J/K/mol
165.36 K, Metastable crystal | 279.12 J/K/mol
165.76 K, Crystal 1 | 252.37 J/K/mol and 252.4 J/K/mol
166.12 K, Crystal 1 | 252.83 J/K/mol
167.18 K, Metastable crystal | 281.64 J/K/mol
167.63 K, Crystal 1 | 254.38 J/K/mol
167.64 K, Crystal 1 | 254.38 J/K/mol
168 K, Crystal 1 | 254.82 J/K/mol
168.99 K, Metastable crystal | 284.12 J/K/mol
169.51 K, Crystal 1 | 256.4 J/K/mol and 256.43 J/K/mol
169.87 K, Crystal 1 | 256.8 J/K/mol
170.8 K, Metastable crystal | 286.54 J/K/mol
171.38 K, Crystal 1 | 258.48 J/K/mol
171.39 K, Crystal 1 | 258.39 J/K/mol
171.74 K, Crystal 1 | 258.82 J/K/mol
172.6 K, Metastable crystal | 288.9 J/K/mol
173.25 K, Crystal 1 | 260.44 J/K/mol
173.26 K, Crystal 1 | 260.44 J/K/mol
173.61 K, Crystal 1 | 260.81 J/K/mol
174.41 K, Metastable crystal | 291.14 J/K/mol
175.13 K, Crystal 1 | 262.42 J/K/mol and 262.45 J/K/mol
175.48 K, Crystal 1 | 262.89 J/K/mol
176.21 K, Metastable crystal | 293.28 J/K/mol
177 K, Crystal 1 | 264.5 J/K/mol
177.01 K, Crystal 1 | 264.53 J/K/mol
177.35 K, Crystal 1 | 264.94 J/K/mol
178.02 K, Metastable crystal | 295.36 J/K/mol
178.87 K, Crystal 1 | 266.49 J/K/mol and 266.55 J/K/mol
179.21 K, Crystal 1 | 266.96 J/K/mol
179.82 K, Metastable crystal | 297.28 J/K/mol
180.74 K, Crystal 1 | 268.51 J/K/mol and 268.63 J/K/mol
181.08 K, Crystal 1 | 268.91 J/K/mol
181.62 K, Metastable crystal | 299.18 J/K/mol
182.6 K, Crystal 1 | 270.65 J/K/mol
182.94 K, Crystal 1 | 270.99 J/K/mol
183.43 K, Metastable crystal | 301.07 J/K/mol
184.47 K, Crystal 1 | 272.64 J/K/mol
184.8 K, Crystal 1 | 273.01 J/K/mol
185.23 K, Metastable crystal | 302.81 J/K/mol
186.33 K, Crystal 1 | 274.72 J/K/mol
186.66 K, Crystal 1 | 275.06 J/K/mol
187.02 K, Metastable crystal | 304.48 J/K/mol
188.19 K, Crystal 1 | 276.76 J/K/mol
188.51 K, Crystal 1 | 277.07 J/K/mol
188.82 K, Metastable crystal | 306.1 J/K/mol
190.05 K, Crystal 1 | 278.78 J/K/mol and 278.81 J/K/mol
190.37 K, Crystal 1 | 279.22 J/K/mol
190.62 K, Metastable crystal | 307.62 J/K/mol
191.9 K, Crystal 1 | 280.86 J/K/mol
191.91 K, Crystal 1 | 280.89 J/K/mol
192.22 K, Crystal 1 | 281.33 J/K/mol
192.42 K, Metastable crystal | 309.11 J/K/mol
193.75 K, Crystal 1 | 282.97 J/K/mol
193.77 K, Crystal 1 | 283 J/K/mol
194.07 K, Crystal 1 | 283.44 J/K/mol
194.22 K, Metastable crystal | 310.72 J/K/mol
195.6 K, Crystal 1 | 285.05 J/K/mol
195.62 K, Crystal 1 | 285.05 J/K/mol
195.92 K, Crystal 1 | 285.39 J/K/mol
196.01 K, Metastable crystal | 311.96 J/K/mol
197.45 K, Crystal 1 | 286.95 J/K/mol
197.47 K, Crystal 1 | 287.13 J/K/mol
197.77 K, Crystal 1 | 287.47 J/K/mol
197.81 K, Metastable crystal | 313.21 J/K/mol
199.3 K, Crystal 1 | 289.24 J/K/mol
199.32 K, Crystal 1 | 289.18 J/K/mol
199.61 K, Crystal 1 | 289.43 J/K/mol
199.61 K, Metastable crystal | 314.45 J/K/mol
201.21 K, Crystal 1 | 291.45 J/K/mol
201.24 K, Crystal 1 | 291.48 J/K/mol
201.47 K, Metastable crystal | 316.31 J/K/mol
201.52 K, Crystal 1 | 291.79 J/K/mol
203.18 K, Crystal 1 | 293.59 J/K/mol
203.21 K, Crystal 1 | 293.87 J/K/mol
203.39 K, Metastable crystal | 317.86 J/K/mol
203.49 K, Crystal 1 | 293.96 J/K/mol
205.15 K, Crystal 1 | 295.85 J/K/mol
205.18 K, Crystal 1 | 296.01 J/K/mol
